PubChem BioAssay AID1259407 (Chemical Carcinogenesis Research Information System (CCRIS), 2018)
The source made the active and inactive calls. No rule for the calls is given here.

Tested on: CCRIS mutagenicity, Ames/micronucleus/aberration tests
Experiment: CCRIS mutagenicity studies
[1] = Test System: AMES SALMONELLA TYPHIMURIUM, Strain/Indicator: TA98, Metabolic Activation: NONE, Method: PREINCUBATION
[2] = Test System: AMES SALMONELLA TYPHIMURIUM, Strain/Indicator: TA100, Metabolic Activation: NONE, Method: PREINCUBATION
[3] = Test System: AMES SALMONELLA TYPHIMURIUM, Strain/Indicator: TA1535, Metabolic Activation: NONE, Method: PREINCUBATION
[4] = Test System: AMES SALMONELLA TYPHIMURIUM, Strain/Indicator: TA1537, Metabolic Activation: NONE, Method: PREINCUBATION
[5] = Test System: AMES SALMONELLA TYPHIMURIUM, Strain/Indicator: TA98, Metabolic Activation: HAMSTER, LIVER, S-9, AROCLOR 1254 (10%), Method: PREINCUBATION
[6] = Test System: AMES SALMONELLA TYPHIMURIUM, Strain/Indicator: TA98, Metabolic Activation: RAT, LIVER, S-9, AROCLOR 1254 (10%), Method: PREINCUBATION
[7] = Test System: AMES SALMONELLA TYPHIMURIUM, Strain/Indicator: TA100, Metabolic Activation: HAMSTER, LIVER, S-9, AROCLOR 1254 (10%), Method: PREINCUBATION
[8] = Test System: AMES SALMONELLA TYPHIMURIUM, Strain/Indicator: TA100, Metabolic Activation: RAT, LIVER, S-9, AROCLOR 1254 (10%), Method: PREINCUBATION
[9] = Test System: AMES SALMONELLA TYPHIMURIUM, Strain/Indicator: TA100, Metabolic Activation: RAT, LIVER, S-9, AROCLOR 1254, Method: STANDARD PLATE
[10] = Test System: AMES SALMONELLA TYPHIMURIUM, Strain/Indicator: TA100, Metabolic Activation: RAT, LIVER, S-9, PCB, Method: PREINCUBATION
[11] = Test System: AMES SALMONELLA TYPHIMURIUM, Strain/Indicator: TA98, Metabolic Activation: NONE, Method: STANDARD PLATE

In the case of `CCOC(=O)[C@H](CCc1ccccc1)N[C@@H](C)C(=O)N1[C@H](C(=O)O)C[C@H]2CCCC[C@@H]21`, the mutagenic call [1] is reported as “inactive; negative”, the mutagenic call (Test System: AMES SALMONELLA TYPHIMURIUM, Strain/Indicator: TA98, Metabolic Activation: RAT, LIVER, S-9, PHENOBARBITAL AND 5,6-BENZOFLAVONE, Method: PREINCUBATION) is reported as “inactive; negative” and the mutagenic call [2] is reported as “inactive; negative”. For the same compound, the mutagenic call (Test System: AMES SALMONELLA TYPHIMURIUM, Strain/Indicator: TA100, Metabolic Activation: RAT, LIVER, S-9, PHENOBARBITAL AND 5,6-BENZOFLAVONE, Method: PREINCUBATION) was “inactive; negative”, the mutagenic call [3] was “inactive; negative” and the mutagenic call (Test System: AMES SALMONELLA TYPHIMURIUM, Strain/Indicator: TA1535, Metabolic Activation: RAT, LIVER, S-9, PHENOBARBITAL AND 5,6-BENZOFLAVONE, Method: PREINCUBATION) was “inactive; negative”. The mutagenic call [4] was “inactive; negative”, the mutagenic call (Test System: AMES SALMONELLA TYPHIMURIUM, Strain/Indicator: TA1537, Metabolic Activation: RAT, LIVER, S-9, PHENOBARBITAL AND 5,6-BENZOFLAVONE, Method: PREINCUBATION) was “inactive; negative” and the mutagenic call (Test System: E. COLI, Strain/Indicator: WP2 UVRA, Metabolic Activation: NONE, Method: PREINCUBATION) was “inactive; negative”. For the same compound, the mutagenic call (Test System: E. COLI, Strain/Indicator: WP2 UVRA, Metabolic Activation: RAT, LIVER, S-9, PHENOBARBITAL AND 5,6-BENZOFLAVONE, Method: PREINCUBATION) was “inactive; negative”.

For `CCOP(=S)(OCC)OP(=S)(OCC)OCC`, the mutagenic call (Test System: AMES SALMONELLA TYPHIMURIUM, Strain/Indicator: TA97, Metabolic Activation: HAMSTER, LIVER, S-9, AROCLOR 1254 (10%), Method: PREINCUBATION) was “inactive; negative”, the mutagenic call (Test System: AMES SALMONELLA TYPHIMURIUM, Strain/Indicator: TA97, Metabolic Activation: NONE, Method: PREINCUBATION) was “inactive; negative” and the mutagenic call (Test System: AMES SALMONELLA TYPHIMURIUM, Strain/Indicator: TA97, Metabolic Activation: RAT, LIVER, S-9, AROCLOR 1254 (10%), Method: PREINCUBATION) was “inactive; negative”. For the same compound, the mutagenic call [5] was “inactive; negative”, the mutagenic call [1] was “inactive; negative” and the mutagenic call [6] was “inactive; negative”. For the same compound, the mutagenic call [7] was “inactive; negative”, the mutagenic call [2] was “inactive; negative” and the mutagenic call [8] was “inactive; negative”. The mutagenic call (Test System: AMES SALMONELLA TYPHIMURIUM, Strain/Indicator: TA1535, Metabolic Activation: HAMSTER, LIVER, S-9, AROCLOR 1254 (5, 10 OR 30%), Method: PREINCUBATION) was “active; positive”, the mutagenic call [3] was “inactive; negative” and the mutagenic call (Test System: AMES SALMONELLA TYPHIMURIUM, Strain/Indicator: TA1535, Metabolic Activation: RAT, LIVER, S-9, AROCLOR 1254 (10 OR 30%), Method: PREINCUBATION) was “inactive; negative”.

With `O=C1c2ccccc2C(=O)c2c1ccc(O)c2O` the mutagenic call [1] was “inactive; negative”, the mutagenic call (Test System: AMES SALMONELLA TYPHIMURIUM, Strain/Indicator: TA98, Metabolic Activation: RAT, LIVER, S-9, PCB, Method: PREINCUBATION) was “inactive; negative” and the mutagenic call [2] was “inactive; negative”. The mutagenic call (Test System: AMES SALMONELLA TYPHIMURIUM, Strain/Indicator: TA100, Metabolic Activation: NONE, Method: STANDARD PLATE) was “inactive; negative”, the mutagenic call [9] was “inactive; negative” and the mutagenic call [10] was “inactive; negative”. For the same compound, the mutagenic call (Test System: AMES SALMONELLA TYPHIMURIUM, Strain/Indicator: TA1535, Metabolic Activation: NONE, Method: STANDARD PLATE) was “inactive; negative”, the mutagenic call (Test System: AMES SALMONELLA TYPHIMURIUM, Strain/Indicator: TA1535, Metabolic Activation: RAT, LIVER, S-9, AROCLOR 1254, Method: STANDARD PLATE) was “inactive; negative” and the mutagenic call (Test System: AMES SALMONELLA TYPHIMURIUM, Strain/Indicator: TA1537, Metabolic Activation: NONE, Method: STANDARD PLATE) was “active; positive”. For the same compound, the mutagenic call (Test System: AMES SALMONELLA TYPHIMURIUM, Strain/Indicator: TA1537, Metabolic Activation: RAT, LIVER, S-9, AROCLOR 1254, Method: STANDARD PLATE) was “active; positive”, the mutagenic call (Test System: AMES SALMONELLA TYPHIMURIUM, Strain/Indicator: TA1537, Metabolic Activation: RAT, LIVER, S-9, Method: PREINCUBATION) was “active; positive” and the mutagenic call (Test System: AMES SALMONELLA TYPHIMURIUM, Strain/Indicator: TA1538, Metabolic Activation: NONE, Method: STANDARD PLATE) was “inactive; negative”. For the same compound, the mutagenic call (Test System: AMES SALMONELLA TYPHIMURIUM, Strain/Indicator: TA1538, Metabolic Activation: RAT, LIVER, S-9, AROCLOR 1254, Method: STANDARD PLATE) was “inactive; negative” and the mutagenic call (Test System: UDS RODENT HEPATOCYTES, Strain/Indicator: THY INCORP (NON-S-PHASE), Metabolic Activation: NONE, Method: AUTORADIOGRAPHY) was “active; positive”.

In the case of `Oc1ccccc1-c1nc2ccccc2o1`, the mutagenic call [11] is reported as “inactive; negative” and the mutagenic call (Test System: AMES SALMONELLA TYPHIMURIUM, Strain/Indicator: TA98, Metabolic Activation: S-9, Method: STANDARD PLATE) is reported as “inactive; negative”.

In the case of `O=C(O)c1ccc([N+](=O)[O-])cc1`, the mutagenic call [5] is reported as “inactive; negative”, the mutagenic call [11] is reported as “active; positive” and the mutagenic call [6] is reported as “inactive; negative”. The mutagenic call (Test System: AMES SALMONELLA TYPHIMURIUM, Strain/Indicator: TA98, Metabolic Activation: RAT, LIVER, S-9, KANECHLOR 500, Method: PREINCUBATION) was “inactive; negative”, the mutagenic call [7] was “active; positive” and the mutagenic call (Test System: AMES SALMONELLA TYPHIMURIUM, Strain/Indicator: TA100, Metabolic Activation: HAMSTER, LIVER, S-9, AROCLOR 1254, FLAVIN MONONUCLEOTIDE, Method: PREINCUBATION) was “active; positive”. The mutagenic call (Test System: AMES SALMONELLA TYPHIMURIUM, Strain/Indicator: TA100, Metabolic Activation: HAMSTER, LIVER, S-9, AROCLOR 1254, Method: PREINCUBATION) was “active; positive”, the mutagenic call [8] was “active; positive” and the mutagenic call (Test System: AMES SALMONELLA TYPHIMURIUM, Strain/Indicator: TA100, Metabolic Activation: RAT, LIVER, S-9, AROCLOR 1254, FLAVIN MONONUCLEOTIDE, Method: PREINCUBATION) was “active; positive”. The mutagenic call [9] was “inactive; negative”, the mutagenic call (Test System: AMES SALMONELLA TYPHIMURIUM, Strain/Indicator: TA100, Metabolic Activation: RAT, LIVER, S-9, KANECHLOR 500, Method: PREINCUBATION) was “active; positive” and the mutagenic call (Test System: AMES SALMONELLA TYPHIMURIUM, Strain/Indicator: TA1535, Metabolic Activation: HAMSTER, LIVER, S-9, AROCLOR 1254 (10%), Method: PREINCUBATION) was “inactive; negative”. The mutagenic call [3] was “inactive; negative”, the mutagenic call (Test System: AMES SALMONELLA TYPHIMURIUM, Strain/Indicator: TA1535, Metabolic Activation: RAT, LIVER, S-9, AROCLOR 1254 (10%), Method: PREINCUBATION) was “inactive; negative” and the mutagenic call (Test System: AMES SALMONELLA TYPHIMURIUM, Strain/Indicator: TA1537, Metabolic Activation: HAMSTER, LIVER, S-9, AROCLOR 1254 (10%), Method: PREINCUBATION) was “inactive; negative”. The mutagenic call [4] was “inactive; negative”, the mutagenic call (Test System: AMES SALMONELLA TYPHIMURIUM, Strain/Indicator: TA1537, Metabolic Activation: RAT, LIVER, S-9, AROCLOR 1254 (10%), Method: PREINCUBATION) was “inactive; negative” and the mutagenic call (Test System: AMES SALMONELLA TYPHIMURIUM, Strain/Indicator: TA1538, Metabolic Activation: NONE, Method: PREINCUBATION) was “active; positive”.

`CC(C)[C@@](O)(C(=O)OC[C@@H]1CCN2CCC[C@H]12)[C@@H](C)O` was tested, and the mutagenic call (Test System: AMES SALMONELLA TYPHIMURIUM, Strain/Indicator: TA100, Metabolic Activation: HAMSTER, LIVER, S-9, PCB, Method: PREINCUBATION) was “inactive; negative” and the mutagenic call [10] was “inactive; negative”.
